Each compound was assayed against GABAA receptor (assay: Steroid inhibition of [35S]-TBPS binding, rat brain cortical membranes). Details: 3 nM [35S]-TBPS, in the presence of 5 mM GABA.
Procedure, shortened: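 In the presence of […], compounds (DMSO 0.5% final) competed with 3 nM [35S]-TBPS for Sprague-Dawley rat cortical membranes, pH 7.4 phosphate buffer, 90 min, room temperature. Filtration and scintillation counting; specific binding defined by […]; IC50 and maximal inhibition fitted per experiment, averaged as mean ± SEM.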
Work on `CCC[C@@]1(O)CC[C@@]2(CC)[C@H](CC[C@H]3[C@@H]4CC[C@H]([C@@](C)(O)Cn5cc(C#N)cn5)[C@@]4(C)CC[C@@H]32)C1` [Compound 45, 1-((R)-2-((3R,5R,8S,9S,10S,13S,14S,17S)-10-ethyl-3-hydroxy-13-methyl-3-propylhexadecahydro-1H-cyclopenta[a]phenanthren-17-yl)-2-hydroxypropyl)-1H-pyrazole-4-carbonitrile] yielded an IC50 of 0.1 to 1 µM.
With `C[C@@]1(O)CC[C@H]2[C@H](CC[C@@H]3[C@@H]2CC[C@@]2(C)[C@H]3[C@H](C3CC3)C[C@@H]2[C@@](C)(O)Cn2cc(C#N)cn2)C1` [Compound 46, 1-((R)-2-((3R,5R,8R,9R,10S,13S,14S,15S,17S)-15-cyclopropyl-3-hydroxy-3,13-dimethylhexadecahydro-1H-cyclopenta[a]phenanthren-17-yl)-2-hydroxypropyl)-1H-pyrazole-4-carbonitrile] the IC50 was < 0.1 µM.
With `C[C@@]1(O)CC[C@H]2[C@H](CC[C@@H]3[C@@H]2CC[C@@]2(C)[C@H]3[C@H](C3CC3)C[C@@H]2[C@](C)(O)Cn2cc(C#N)cn2)C1` [Compound 47, 1-((S)-2-((3R,5R,8R,9R,10S,13S,14S,15S,17S)-15-cyclopropyl-3-hydroxy-3,13-dimethylhexadecahydro-1H-cyclopenta[a]phenanthren-17-yl)-2-hydroxypropyl)-1H-pyrazole-4-carbonitrile] the IC50 was < 0.1 µM.
In the case of `C[C@@H]1C[C@H]([C@](C)(O)Cn2cc(C#N)cn2)[C@@]2(C)CC[C@H]3[C@@H](CC[C@@H]4C[C@](C)(O)CC[C@@H]43)[C@H]12` [Compound 48, 1-((S)-2-hydroxy-2-((3R,5R,8R,9R,10S,13S,14S,15R,17S)-3-hydroxy-3,13,15-trimethylhexadecahydro-1H-cyclopenta[a]phenanthren-17-yl)propyl)-1H-pyrazole-4-carbonitrile], the IC50 is reported as < 0.1 µM.
`C[C@@H]1C[C@H]([C@@](C)(O)Cn2cc(C#N)cn2)[C@@]2(C)CC[C@H]3[C@@H](CC[C@@H]4C[C@](C)(O)CC[C@@H]43)[C@H]12` [Compound 49, 1-((R)-2-hydroxy-2-((3R,5R,8R,9R,10S,13S,14S,15R,17S)-3-hydroxy-3,13,15-trimethylhexadecahydro-1H-cyclopenta[a]phenanthren-17-yl)propyl)-1H-pyrazole-4-carbonitrile] was tested, and the IC50 was < 0.1 µM.
`C[C@H]1C[C@H]2[C@H](CC[C@@H]3[C@@H]2CC[C@@]2(C)[C@H]3CC[C@@H]2[C@](C)(O)Cn2cc(C#N)cn2)C[C@]1(C)O` [Compound 50, 1-((S)-2-hydroxy-2-((2S,3S,5R,8R,9R,10S,13S,14S,17S)-3-hydroxy-2,3,13-trimethylhexadecahydro-1H-cyclopenta[a]phenanthren-17-yl)propyl)-1H-pyrazole-4-carbonitrile] was tested, and the IC50 was < 0.1 µM.
`C[C@H]1C[C@H]2[C@H](CC[C@@H]3[C@@H]2CC[C@@]2(C)[C@H]3CC[C@@H]2[C@@](C)(O)Cn2cc(C#N)cn2)C[C@]1(C)O` [Compound 51, 1-((R)-2-hydroxy-2-((2S,3S,5R,8R,9R,10S,13S,14S,17S)-3-hydroxy-2,3,13-trimethylhexadecahydro-1H-cyclopenta[a]phenanthren-17-yl)propyl)-1H-pyrazole-4-carbonitrile] was tested, and the IC50 was < 0.1 µM.
`C[C@@H]1C[C@H]2[C@H](CC[C@@H]3[C@@H]2CC[C@@]2(C)[C@H]3CC[C@@H]2[C@](C)(O)Cn2cc(C#N)cn2)C[C@]1(C)O` [Compound 52, 1-((S)-2-hydroxy-2-((2R,3S,5R,8R,9R,10S,13S,14S,17S)-3-hydroxy-2,3,13-trimethylhexadecahydro-1H-cyclopenta[a]phenanthren-17-yl)propyl)-1H-pyrazole-4-carbonitrile] was tested, and the IC50 was < 0.1 µM.
With `C[C@@H]1C[C@H]2[C@H](CC[C@@H]3[C@@H]2CC[C@@]2(C)[C@H]3CC[C@@H]2[C@@](C)(O)Cn2cc(C#N)cn2)C[C@]1(C)O` [Compound 53, 1-((R)-2-hydroxy-2-((2R,3S,5R,8R,9R,10S,13S,14S,17S)-3-hydroxy-2,3,13-trimethylhexadecahydro-1H-cyclopenta[a]phenanthren-17-yl)propyl)-1H-pyrazole-4-carbonitrile] the IC50 was 0.1 to 1 µM.
`COC[C@@]1(O)CC[C@@]2(C)[C@H](CC[C@@H]3[C@@H]2CC[C@@]2(C)[C@H]3CC[C@@H]2[C@@](C)(Cn2cc(C#N)cn2)OC)C1` [Compound 54, 1-((S)-2-((3R,5R,8R,9S,10S,13S,14S,17S)-3-hydroxy-3-(methoxymethyl)-10,13-dimethylhexadecahydro-1H-cyclopenta[a]phenanthren-17-yl)-2-methoxypropyl)-1H-pyrazole-4-carbonitrile] was tested, and the IC50 was 0.1 to 1 µM.
In the case of `COC[C@@]1(O)CC[C@@]2(C)[C@H](CC[C@@H]3[C@@H]2CC[C@@]2(C)[C@H]3CC[C@@H]2[C@](C)(Cn2cc(C#N)cn2)OC)C1` [Compound 55, 1-((R)-2-((3R,5R,8R,9S,10S,13S,14S,17S)-3-hydroxy-3-(methoxymethyl)-10,13-dimethylhexadecahydro-1H-cyclopenta[a]phenanthren-17-yl)-2-methoxypropyl)-1H-pyrazole-4-carbonitrile], the IC50 is reported as 0.1 to 1 µM.
With `COC[C@@]1(O)CC[C@H]2[C@H](CC[C@@H]3[C@@H]2CC[C@]2(C)[C@@H](C(C)(C)Cn4cc(C#N)cn4)CC[C@@H]32)C1` [Compound 56, 1-(2-((3R,5R,8R,9R,10S,13S,14S,17S)-3-hydroxy-3-(methoxymethyl)-13-methylhexadecahydro-1H-cyclopenta[a]phenanthren-17-yl)-2-methylpropyl)-1H-pyrazole-4-carbonitrile] the IC50 was < 0.1 µM.
With `C[C@@]1(O)CC[C@H]2[C@H](CC[C@@H]3[C@@H]2CC[C@@]2(C)[C@H]3CC[C@@H]2[C@](C)(C#N)Cn2cc(C#N)cn2)C1` [Compound 57, 1-((S)-2-cyano-2-((3R,5R,8R,9R,10S,13S,14S,17S)-3-hydroxy-3,13-dimethylhexadecahydro-1H-cyclopenta[a]phenanthren-17-yl)propyl)-1H-pyrazole-4-carbonitrile] the IC50 was < 0.1 µM.
For `COC[C@H]1C[C@H]2[C@H](CC[C@@H]3[C@@H]2CC[C@@]2(C)[C@H]3CC[C@@H]2[C@](C)(O)Cn2cc(C#N)cn2)C[C@]1(C)O` [Compound 58, 1-((S)-2-hydroxy-2-((2R,3S,5R,8R,9R,10S,13S,14S,17S)-3-hydroxy-2-(methoxymethyl)-3,13-dimethylhexadecahydro-1H-cyclopenta[a]phenanthren-17-yl)propyl)-1H-pyrazole-4-carbonitrile], the IC50 was < 0.1 µM.
In the case of `COC[C@@H]1C[C@H]2[C@H](CC[C@@H]3[C@@H]2CC[C@@]2(C)[C@H]3CC[C@@H]2[C@](C)(O)Cn2cc(C#N)cn2)C[C@]1(C)O` [Compound 58A, 1-((S)-2-hydroxy-2-((2S,3S,5R,8R,9R,10S,13S,14S,17S)-3-hydroxy-2-(methoxymethyl)-3,13-dimethylhexadecahydro-1H-cyclopenta[a]phenanthren-17-yl)propyl)-1H-pyrazole-4-carbonitrile], the IC50 is reported as < 0.1 µM.
In the case of `COC[C@H]1C[C@H]2[C@H](CC[C@@H]3[C@@H]2CC[C@@]2(C)[C@H]3CC[C@@H]2[C@@](C)(O)Cn2cc(C#N)cn2)C[C@]1(C)O` [Compound 59, 1-((R)-2-hydroxy-2-((2R,3S,5R,8R,9R,10S,13S,14S,17S)-3-hydroxy-2-(methoxymethyl)-3,13-dimethylhexadecahydro-1H-cyclopenta[a]phenanthren-17-yl)propyl)-1H-pyrazole-4-carbonitrile], the IC50 is reported as 0.1 to 1 µM.
`COC[C@@H]1C[C@H]2[C@H](CC[C@@H]3[C@@H]2CC[C@@]2(C)[C@H]3CC[C@@H]2[C@@](C)(O)Cn2cc(C#N)cn2)C[C@]1(C)O` [Compound 59A, 1-((R)-2-hydroxy-2-((2S,3S,5R,8R,9R,10S,13S,14S,17S)-3-hydroxy-2-(methoxymethyl)-3,13-dimethylhexadecahydro-1H-cyclopenta[a]phenanthren-17-yl)propyl)-1H-pyrazole-4-carbonitrile] showed an IC50 of 0.1 to 1 µM.
In the case of `CO[C@@H]1C[C@H]2[C@H](CC[C@@H]3[C@@H]2CC[C@@]2(C)[C@H]3CC[C@@H]2[C@](C)(O)Cn2cc(C#N)cn2)C[C@]1(C)O` [Compound 60, 1-((S)-2-hydroxy-2-((2R,3S,5R,8R,9R,10S,13S,14S,17S)-3-hydroxy-2-methoxy-3,13-dimethylhexadecahydro-1H-cyclopenta[a]phenanthren-17-yl)propyl)-1H-pyrazole-4-carbonitrile], the IC50 is reported as < 0.1 µM.
For `CO[C@@H]1C[C@H]2[C@H](CC[C@@H]3[C@@H]2CC[C@@]2(C)[C@H]3CC[C@@H]2[C@@](C)(O)Cn2cc(C#N)cn2)C[C@]1(C)O` [Compound 61, 1-((R)-2-hydroxy-2-((2R,3S,5R,8R,9R,10S,13S,14S,17S)-3-hydroxy-2-methoxy-3,13-dimethylhexadecahydro-1H-cyclopenta[a]phenanthren-17-yl)propyl)-1H-pyrazole-4-carbonitrile], the IC50 was 0.1 to 1 µM.
